# Experimental data reported in PubChem BioAssay (NCI).
#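 A five-concentration, 48-hour dose response in 96-well plates underlies each endpoint, interpolated linearly between surrounding concentrations. GI50 = concentration required for 50% inhibition of growth. TGI denotes the concentration required for complete inhibition of growth.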
# Legend:
# Experiment in all cases: NCI-60 cell line screen, 48 h
# SK-MEL-2 melanoma = system: SK-MEL-2 melanoma
# RXF 393 renal = system: RXF 393 renal
# BT-549 breast = system: BT-549 breast
# A549 NSCLC = system: A549 NSCLC
# KM12 colon = system: KM12 colon
# SNB-75 CNS = system: SNB-75 CNS
# SK-MEL-5 melanoma = system: SK-MEL-5 melanoma
# MOLT-4 leukemia = system: MOLT-4 leukemia
# OVCAR-4 ovarian = system: OVCAR-4 ovarian
# OVCAR-5 ovarian = system: OVCAR-5 ovarian
# HCC-2998 colon = system: HCC-2998 colon
# HS 578T breast = system: HS 578T breast
# SK-OV-3 ovarian = system: SK-OV-3 ovarian
# HOP-62 NSCLC = system: HOP-62 NSCLC
# TK-10 renal = system: TK-10 renal
# MDA-MB-435 = system: MDA-MB-435
# OVCAR-3 ovarian = system: OVCAR-3 ovarian
# CAKI-1 renal = system: CAKI-1 renal
# ACHN renal = system: ACHN renal
# NCI-H23 lung = system: NCI-H23 lung
# NCI-H226 lung = system: NCI-H226 lung
# IGROV1 ovarian = system: IGROV1 ovarian
# MCF7 breast = system: MCF7 breast
# M14 melanoma = system: M14 melanoma
# DU-145 prostate = system: DU-145 prostate
# HCT-15 colon = system: HCT-15 colon
# HT29 colon = system: HT29 colon
# U251 CNS = system: U251 CNS
# T-47D breast = system: T-47D breast
# UACC-62 melanoma = system: UACC-62 melanoma
# HCT-116 colon = system: HCT-116 colon
# PC-3 prostate = system: PC-3 prostate
# A498 renal = system: A498 renal
# SN12C renal = system: SN12C renal
# SF-268 CNS = system: SF-268 CNS
# NCI/ADR-RES ovarian = system: NCI/ADR-RES ovarian
# SW-620 colon = system: SW-620 colon
# SK-MEL-28 melanoma = system: SK-MEL-28 melanoma
# UACC-257 melanoma = system: UACC-257 melanoma
# OVCAR-8 ovarian = system: OVCAR-8 ovarian
# RPMI-8226 leukemia = system: RPMI-8226 leukemia
# LOX IMVI melanoma = system: LOX IMVI melanoma
# HOP-92 NSCLC = system: HOP-92 NSCLC
# SF-295 CNS = system: SF-295 CNS
# EKVX NSCLC = system: EKVX NSCLC
# COLO 205 colon = system: COLO 205 colon
# NCI-H460 lung = system: NCI-H460 lung
# 786-0 renal = system: 786-0 renal
# K-562 leukemia = system: K-562 leukemia
# MDA-MB-231 breast = system: MDA-MB-231 breast
# SNB-19 CNS = system: SNB-19 CNS
# NCI-H522 lung = system: NCI-H522 lung
compound,measurement,setting,value
CCOC(=O)C1=C(C)N(Cc2ccc(Cl)cc2Cl)C2(O)C=CC(=O)C3=C(O)c4ccccc4C(=O)C312 (centres undefined),GI50,SK-MEL-2 melanoma,38.4 µM
same,TGI,SK-MEL-2 melanoma,> 100 µM
same,GI50,RXF 393 renal,11.1 µM
same,TGI,RXF 393 renal,66.5 µM
same,GI50,BT-549 breast,21.6 µM
same,TGI,BT-549 breast,> 100 µM
same,GI50,A549 NSCLC,9.35 µM
same,TGI,A549 NSCLC,> 100 µM
same,GI50,KM12 colon,4.02 µM
same,TGI,KM12 colon,16.8 µM
same,GI50,SNB-75 CNS,16.9 µM
same,TGI,SNB-75 CNS,> 100 µM
same,GI50,SK-MEL-5 melanoma,7.38 µM
same,TGI,SK-MEL-5 melanoma,23.3 µM
same,GI50,MOLT-4 leukemia,3.87 µM
same,TGI,MOLT-4 leukemia,> 100 µM
same,GI50,OVCAR-4 ovarian,11.5 µM
same,TGI,OVCAR-4 ovarian,> 100 µM
same,GI50,OVCAR-5 ovarian,9.59 µM
same,TGI,OVCAR-5 ovarian,30.1 µM
same,GI50,HCC-2998 colon,11.2 µM
same,TGI,HCC-2998 colon,28.2 µM
same,GI50,HS 578T breast,16.1 µM
same,TGI,HS 578T breast,96.3 µM
same,GI50,SK-OV-3 ovarian,17.4 µM
same,TGI,SK-OV-3 ovarian,91.7 µM
same,GI50,HOP-62 NSCLC,3.56 µM
same,TGI,HOP-62 NSCLC,15 µM
same,GI50,TK-10 renal,3.78 µM
same,TGI,TK-10 renal,10.8 µM
same,GI50,MDA-MB-435,3.87 µM
same,TGI,MDA-MB-435,13.4 µM
same,GI50,OVCAR-3 ovarian,2.2 µM
same,TGI,OVCAR-3 ovarian,6 µM
same,GI50,CAKI-1 renal,3.31 µM
same,TGI,CAKI-1 renal,15 µM
same,GI50,ACHN renal,3.82 µM
same,TGI,ACHN renal,18.2 µM
same,GI50,NCI-H23 lung,3.61 µM
same,TGI,NCI-H23 lung,16.1 µM
same,GI50,NCI-H226 lung,3.77 µM
same,TGI,NCI-H226 lung,27.8 µM
same,GI50,IGROV1 ovarian,8.62 µM
same,TGI,IGROV1 ovarian,> 100 µM
same,GI50,MCF7 breast,2.65 µM
same,TGI,MCF7 breast,40.1 µM
same,GI50,M14 melanoma,3.97 µM
same,TGI,M14 melanoma,69.3 µM
same,GI50,DU-145 prostate,7.99 µM
same,TGI,DU-145 prostate,28.8 µM
same,GI50,HCT-15 colon,1.82 µM
same,TGI,HCT-15 colon,13.5 µM
same,GI50,HT29 colon,5.04 µM
same,TGI,HT29 colon,> 100 µM
same,GI50,U251 CNS,3.53 µM
same,TGI,U251 CNS,15.8 µM
same,GI50,T-47D breast,6.83 µM
same,TGI,T-47D breast,39.7 µM
same,GI50,UACC-62 melanoma,4.72 µM
same,TGI,UACC-62 melanoma,18.9 µM
same,GI50,HCT-116 colon,3.19 µM
same,TGI,HCT-116 colon,11.6 µM
same,GI50,PC-3 prostate,2.16 µM
same,TGI,PC-3 prostate,10.5 µM
same,GI50,A498 renal,23.7 µM
same,TGI,A498 renal,59.4 µM
same,GI50,SN12C renal,3.39 µM
same,TGI,SN12C renal,15.4 µM
same,GI50,SF-268 CNS,6.72 µM
same,TGI,SF-268 CNS,37.5 µM
same,GI50,NCI/ADR-RES ovarian,0.888 µM
same,TGI,NCI/ADR-RES ovarian,10.3 µM
same,GI50,SW-620 colon,4.74 µM
same,TGI,SW-620 colon,> 100 µM
same,GI50,SK-MEL-28 melanoma,10.6 µM
same,TGI,SK-MEL-28 melanoma,40.1 µM
same,GI50,UACC-257 melanoma,10.9 µM
same,TGI,UACC-257 melanoma,61.2 µM
same,GI50,OVCAR-8 ovarian,7.17 µM
same,TGI,OVCAR-8 ovarian,91.2 µM
same,GI50,RPMI-8226 leukemia,3.29 µM
same,TGI,RPMI-8226 leukemia,13 µM
same,GI50,LOX IMVI melanoma,2.75 µM
same,TGI,LOX IMVI melanoma,16.1 µM
same,GI50,HOP-92 NSCLC,1.23 µM
same,TGI,HOP-92 NSCLC,5.48 µM
same,GI50,SF-295 CNS,3.07 µM
same,TGI,SF-295 CNS,14.9 µM
same,GI50,EKVX NSCLC,10.6 µM
same,TGI,EKVX NSCLC,47.8 µM
same,GI50,COLO 205 colon,4.41 µM
same,TGI,COLO 205 colon,20.6 µM
same,GI50,NCI-H460 lung,5.55 µM
same,TGI,NCI-H460 lung,43.2 µM
same,GI50,786-0 renal,3.54 µM
same,TGI,786-0 renal,15.2 µM
same,GI50,K-562 leukemia,4.85 µM
same,TGI,K-562 leukemia,> 100 µM
same,GI50,MDA-MB-231 breast,3.96 µM
same,TGI,MDA-MB-231 breast,12.8 µM
same,GI50,SNB-19 CNS,9.02 µM
same,TGI,SNB-19 CNS,78.7 µM
same,GI50,NCI-H522 lung,11.4 µM
same,TGI,NCI-H522 lung,> 100 µM
